The values below come from US20120071475A1, “UREA DERIVATIVES HAVING PI3K-INHIBITING ACTIVITY” (SHIONOGI & CO., LTD., priority 2009, published 2012).

Usually Ki stands for a dissociation constant, usually derived from enzyme kinetics or from competition with a known ligand.

Like-named read-outs stand apart in the source and are kept apart here.

The target in data set [1] is T1, hERG channel (IKr) (Homo sapiens, UniProt Q12809).
T1 construct: expressed in transfected cells; host or cells: HEK293
T1 sequence (Q12809 whole entry): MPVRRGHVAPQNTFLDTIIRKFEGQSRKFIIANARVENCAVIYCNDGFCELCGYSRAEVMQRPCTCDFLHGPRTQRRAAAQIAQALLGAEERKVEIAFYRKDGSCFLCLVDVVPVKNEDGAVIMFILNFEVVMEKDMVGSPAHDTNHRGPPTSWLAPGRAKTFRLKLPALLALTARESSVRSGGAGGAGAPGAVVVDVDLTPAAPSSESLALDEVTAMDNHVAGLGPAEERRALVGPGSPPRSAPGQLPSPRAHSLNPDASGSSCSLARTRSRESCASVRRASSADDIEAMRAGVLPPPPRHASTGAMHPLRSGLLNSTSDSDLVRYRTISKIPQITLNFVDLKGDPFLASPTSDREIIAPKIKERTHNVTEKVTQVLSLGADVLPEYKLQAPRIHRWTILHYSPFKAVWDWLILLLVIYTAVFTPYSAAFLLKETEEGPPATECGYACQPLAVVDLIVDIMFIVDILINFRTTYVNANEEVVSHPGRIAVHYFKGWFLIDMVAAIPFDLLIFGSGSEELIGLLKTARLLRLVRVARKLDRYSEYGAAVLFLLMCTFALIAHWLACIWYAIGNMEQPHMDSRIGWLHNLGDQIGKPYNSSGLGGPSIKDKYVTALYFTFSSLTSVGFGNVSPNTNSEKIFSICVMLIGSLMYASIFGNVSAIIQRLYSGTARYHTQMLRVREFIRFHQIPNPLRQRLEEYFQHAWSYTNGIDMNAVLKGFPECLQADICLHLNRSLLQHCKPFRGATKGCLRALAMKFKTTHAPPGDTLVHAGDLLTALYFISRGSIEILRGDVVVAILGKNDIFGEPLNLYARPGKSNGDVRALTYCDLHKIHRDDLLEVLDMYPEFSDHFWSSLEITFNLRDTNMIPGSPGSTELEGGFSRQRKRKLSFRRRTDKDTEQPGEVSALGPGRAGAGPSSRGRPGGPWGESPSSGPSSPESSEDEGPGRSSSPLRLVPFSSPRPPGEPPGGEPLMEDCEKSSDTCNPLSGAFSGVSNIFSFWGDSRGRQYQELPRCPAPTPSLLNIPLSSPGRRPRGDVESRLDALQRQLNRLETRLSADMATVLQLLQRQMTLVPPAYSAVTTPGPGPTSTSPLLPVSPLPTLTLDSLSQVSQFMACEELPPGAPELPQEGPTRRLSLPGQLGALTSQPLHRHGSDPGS
The experiment in a line: hERG test (whole-cell patch-clamp, IKr in HEK293 cells). Conditions: human, HEK293 cells expressing hERG channel, pH 7.4, inhibition of maximum tail current (IKr), compound 1 μM. It counts as cell-based. In short, it runs like this:
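hERG-expressing HEK293 cells, automated whole-cell patch clamp: hold −80 mV, +50 mV for 2 s, then −50 mV for 2 s to record IKr tail current. Compound in extracellular solution (pH 7.4) for 10 min at room temperature; inhibition of maximum tail current calculated versus pre-application and compared with 0.1% DMSO vehicle.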
On the technique in general: The hERG channel carries a current that helps repolarise heart muscle cells.

The test system of data set [2] is AKT phosphorylation. Description: AKT phosphorylation inhibitory activity in MCP-1 stimulated THP-1 cells (sandwich ELISA). Type of data set: cell-based, Human. Conditions: compound at 1 μmol/L, MCP-1 stimulation; for inhibition at 1 µM: Homo sapiens, read-out: AKT phosphorylation inhibition ratio. In short, it runs like this: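 THP-1 cells (6.7×10^6/mL in HBSS) were preincubated with compound at 1 μmol/L for 5 min at 37 °C, then stimulated for 60 s with HBSS containing 1.2 μg/mL MCP-1 and lysed. Phospho-Akt Ser473/AKT1 sandwich ELISA was read at A450. % inhibition: no compound = 100% activity, no MCP-1 = 0%.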

In data set [3] the target is PI3Kγ (Homo sapiens, UniProt P48736). Description: PI3Kγ inhibitory activity (PI3-kinase HTRF assay, inhibition ratio). It counts as biochemical. The conditions noted are these: compound at 10 μmol/L; for inhibition at 10 µM: 0.5 h, read-out: PI3Kg Inhibition Ratio % (10 μM). In short, it runs like this: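 Compound at 10 μmol/L preincubated 10 min with PI3Kγ and PIP2 substrate, then reacted with ATP for 30 minutes at room temperature; the compound, substrate and ATP figures as printed (40 μmol/L each) are solution concentrations. HTRF 665/620 nm ratio read after 18 hours. Inhibition ratio calculated against no-compound (100%) and no-enzyme (0%) controls.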
PI3Kγ, sequence (P48736 whole entry, species assumed): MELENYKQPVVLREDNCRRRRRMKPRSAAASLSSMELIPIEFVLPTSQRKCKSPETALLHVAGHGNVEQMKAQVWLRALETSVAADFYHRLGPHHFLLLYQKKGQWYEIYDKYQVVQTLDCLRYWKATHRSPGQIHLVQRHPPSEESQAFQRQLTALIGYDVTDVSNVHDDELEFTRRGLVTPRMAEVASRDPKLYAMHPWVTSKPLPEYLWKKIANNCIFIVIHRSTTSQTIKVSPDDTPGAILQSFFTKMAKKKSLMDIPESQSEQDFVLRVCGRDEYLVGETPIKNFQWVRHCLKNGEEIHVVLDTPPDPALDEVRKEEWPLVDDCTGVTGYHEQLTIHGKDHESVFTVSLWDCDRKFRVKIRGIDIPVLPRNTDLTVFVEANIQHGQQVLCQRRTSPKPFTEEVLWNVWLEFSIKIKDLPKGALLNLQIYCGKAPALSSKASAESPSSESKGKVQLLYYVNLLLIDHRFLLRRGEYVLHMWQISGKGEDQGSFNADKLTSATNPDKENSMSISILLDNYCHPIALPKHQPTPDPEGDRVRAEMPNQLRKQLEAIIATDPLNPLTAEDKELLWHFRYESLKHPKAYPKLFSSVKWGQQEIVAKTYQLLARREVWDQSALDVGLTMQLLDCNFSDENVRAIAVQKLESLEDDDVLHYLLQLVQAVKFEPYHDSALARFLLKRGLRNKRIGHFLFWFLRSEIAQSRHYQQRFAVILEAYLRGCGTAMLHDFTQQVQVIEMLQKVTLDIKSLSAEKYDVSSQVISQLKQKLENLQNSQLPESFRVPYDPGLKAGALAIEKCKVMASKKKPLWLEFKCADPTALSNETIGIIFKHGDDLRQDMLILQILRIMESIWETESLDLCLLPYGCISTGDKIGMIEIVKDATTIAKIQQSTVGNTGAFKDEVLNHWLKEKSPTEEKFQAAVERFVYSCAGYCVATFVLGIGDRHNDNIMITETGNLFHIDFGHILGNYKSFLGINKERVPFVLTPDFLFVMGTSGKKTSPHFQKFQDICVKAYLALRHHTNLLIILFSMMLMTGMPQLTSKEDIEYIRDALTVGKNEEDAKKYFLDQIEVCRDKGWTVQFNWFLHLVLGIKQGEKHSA

In data set [4] the target is PI3Kβ (Homo sapiens, UniProt P42338). Description: PI3Kβ inhibitory activity (Ki value). Type of data set: biochemical. The protocol:
According to Example 2 above, after 80 μg/mL PI-3 kinase γ of the enzyme solution (80 μg/mL PI-3 kinase γ, 10 mmol/L MgCl2, 5 mmol/L DTT) was changed to 60 μg/mL PI-3 kinase β, a method similar to the method for measuring PI3Kγ inhibitory activity was used to calculate an inhibition ratio, which was defined as the PI3Kβ inhibitory activity.
According to Example 4 above, a Km value for PI3Kβ was determined to calculate a Ki value.

Setting [5] is: class symbols, read-out: PI3K β Ki.

PI3Kβ, sequence (P42338 whole entry, species assumed): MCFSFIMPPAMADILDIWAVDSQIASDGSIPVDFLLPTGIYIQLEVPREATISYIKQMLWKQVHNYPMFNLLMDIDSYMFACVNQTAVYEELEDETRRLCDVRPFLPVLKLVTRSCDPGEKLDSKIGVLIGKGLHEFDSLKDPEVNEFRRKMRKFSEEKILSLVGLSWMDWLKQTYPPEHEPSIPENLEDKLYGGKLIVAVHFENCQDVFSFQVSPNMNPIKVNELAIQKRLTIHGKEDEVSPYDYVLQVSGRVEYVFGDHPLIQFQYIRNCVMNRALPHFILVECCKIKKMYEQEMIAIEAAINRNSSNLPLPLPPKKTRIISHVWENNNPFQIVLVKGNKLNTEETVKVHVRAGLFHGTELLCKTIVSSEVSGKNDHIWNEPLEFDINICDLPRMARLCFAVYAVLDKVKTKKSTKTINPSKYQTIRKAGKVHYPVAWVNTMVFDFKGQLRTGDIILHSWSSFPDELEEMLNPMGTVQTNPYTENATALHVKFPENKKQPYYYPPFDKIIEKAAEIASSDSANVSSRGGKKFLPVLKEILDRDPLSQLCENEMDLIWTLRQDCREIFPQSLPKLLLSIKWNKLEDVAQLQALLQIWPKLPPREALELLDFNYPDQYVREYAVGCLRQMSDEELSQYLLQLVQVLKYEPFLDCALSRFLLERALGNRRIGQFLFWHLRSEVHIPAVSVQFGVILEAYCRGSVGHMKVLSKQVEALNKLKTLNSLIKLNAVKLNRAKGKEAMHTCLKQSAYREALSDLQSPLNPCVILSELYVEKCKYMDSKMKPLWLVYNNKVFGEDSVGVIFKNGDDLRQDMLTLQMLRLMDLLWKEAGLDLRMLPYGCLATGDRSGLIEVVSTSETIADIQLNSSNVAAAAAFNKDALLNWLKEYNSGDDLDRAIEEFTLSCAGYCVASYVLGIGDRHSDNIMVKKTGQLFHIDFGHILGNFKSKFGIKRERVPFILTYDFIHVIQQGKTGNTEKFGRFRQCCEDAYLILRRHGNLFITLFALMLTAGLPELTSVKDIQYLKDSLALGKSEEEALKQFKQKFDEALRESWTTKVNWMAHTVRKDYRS
PI3Kβ, sequence (P27986 whole entry partner, species assumed): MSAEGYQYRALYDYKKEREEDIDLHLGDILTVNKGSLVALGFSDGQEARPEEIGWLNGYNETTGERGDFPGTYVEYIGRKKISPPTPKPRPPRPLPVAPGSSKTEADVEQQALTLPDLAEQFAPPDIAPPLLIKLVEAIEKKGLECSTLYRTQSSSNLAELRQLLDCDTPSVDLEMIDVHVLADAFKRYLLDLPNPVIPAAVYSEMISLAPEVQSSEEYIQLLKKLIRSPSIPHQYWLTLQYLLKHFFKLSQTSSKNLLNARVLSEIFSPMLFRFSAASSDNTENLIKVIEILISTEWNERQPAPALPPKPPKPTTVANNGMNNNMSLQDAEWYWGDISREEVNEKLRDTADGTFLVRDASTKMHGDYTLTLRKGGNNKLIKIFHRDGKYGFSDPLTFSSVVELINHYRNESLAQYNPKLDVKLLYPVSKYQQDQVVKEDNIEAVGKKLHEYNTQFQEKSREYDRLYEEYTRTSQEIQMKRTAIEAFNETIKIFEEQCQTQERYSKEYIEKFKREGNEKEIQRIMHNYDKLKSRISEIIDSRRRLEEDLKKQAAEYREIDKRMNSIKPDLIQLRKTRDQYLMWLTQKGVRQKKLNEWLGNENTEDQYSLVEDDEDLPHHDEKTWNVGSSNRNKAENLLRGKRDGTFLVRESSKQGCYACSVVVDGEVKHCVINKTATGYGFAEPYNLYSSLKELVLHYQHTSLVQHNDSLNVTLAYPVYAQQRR

In data set [1], `CC(C)NC(=O)c1ccccc1NC(=O)Nc1nc2c(s1)CN(c1cccc(S(C)(=O)=O)c1)CC2` [Compound I-198] showed an inhibition at 10 min, 1 µM of 5.9%. In addition, the inhibition at 1 µM in data set [2] was 94%. In addition, in data set [3], the inhibition at 10 µM was no less than 95%.
Turning to `C[C@@H](CO)NC(=O)c1ccccc1NC(=O)Nc1nc2c(s1)CN(c1cncc(S(C)(=O)=O)c1)CC2` [Compound I-211], the inhibition at 1 µM in data set [2] was 85%. Further, the inhibition at 10 µM in data set [3] turned out to be 87%.
On to `COc1cc(N2CCc3nc(NC(=O)Nc4ccccc4C(=O)NC(C)C(O)C(F)(F)F)sc3C2)nc(OC)n1` (centres unmarked) [Compound I-139], for which the “AKT phosphorylation inhibition ratio” value in data set [2] is on record as no less than 95%. Besides, in data set [3], the “PI3Kg Inhibition Ratio % (10 μM)” value is recorded as “≧95%”.
Turning to `COc1cncc(-c2ccc3nc(NC(=O)Nc4ccccc4OCCC(C)C)cn3n2)c1` [Compound I-114], the inhibition at 1 µM in data set [2] amounted to 64.9%. Also, the Ki in data set [4] (setting [5]) is no more than 3000 nM; in data set [4] (read-out: PI3Kβ Ki value), 660 nM.
Turning to `COc1cc(N2CCc3nc(NC(=O)Nc4cn(C)nc4C(=O)NCC(F)(F)F)sc3C2)nc(OC)n1` [Compound I-148], the inhibition at 10 min, 1 µM in data set [1] is 3.3%. For the same compound, in data set [2], the inhibition at 1 µM is no less than 95%. Besides, in data set [4] (setting [5]), the Ki was no more than 300 nM. Besides, the inhibition at 10 µM in data set [3] worked out at 90%.
For `COc1cc(N2CCc3nc(NC(=O)Nc4ccccc4C(=O)NCCF)sc3C2)nc(OC)n1` [Compound I-88], in data set [1], the inhibition at 10 min, 1 µM was found to be 5.7%. Further, in data set [2], the inhibition at 1 µM was 87.3%. In addition, the inhibition at 10 µM in data set [3] is no less than 95%.
In turn, `COc1nc(Cl)cc(N2CCc3nc(NC(=O)Nc4ccccc4C(=O)NC4CCCOC4)sc3C2)n1` (centres unmarked) [Compound I-197] showed an inhibition at 10 min, 1 µM in data set [1] of 4.8%. In data set [2], the inhibition at 1 µM was 90%. Moreover, the Ki in data set [4] (setting [5]) was greater than 3000 nM. Also, the inhibition at 10 µM in data set [3] is no less than 95%.
Taken in the same sequence, the figures for `CC(C)NC(=O)c1ccccc1NC(=O)Nc1nc2c(s1)CN(c1cncc(C(F)(F)F)c1)CC2` [Compound I-131] were 3.9%, 84%, greater than 3000 nM and 78%.
With `COc1cc(N2CCc3nc(NC(=O)Nc4ccccc4C(=O)NN4CCN(C)CC4)sc3C2)nc(OC)n1` [Compound I-195], the inhibition at 1 µM in data set [2] was found to be 82%. Further, the inhibition at 10 µM in data set [3] is no less than 95%.
Regarding `COc1cc(N2CCc3nc(NC(=O)Nc4ccccc4C(=O)NC(C)C)sc3C2)nc(OC)n1` [Compound I-12], the inhibition at 1 µM in data set [2] is no less than 95%. In addition, the Ki in data set [4] (setting [5]) is no more than 3000 nM; in data set [4] (read-out: PI3Kβ Ki value) it was 340 nM. Further, the inhibition at 10 µM in data set [3] amounted to 94%.
`Cc1nc(NC(=O)Nc2ccccc2C(=O)NC(C)C)sc1-c1ccc(S(C)(=O)=O)c(F)c1` [Compound I-127]: the inhibition at 10 min, 1 µM in data set [1] came to 0.6%. For the same compound, the inhibition at 1 µM in data set [2] was 77.7%. The Ki in data set [4] (setting [5]) was no more than 3000 nM; in data set [4] (read-out: PI3Kβ Ki value), 340 nM. Besides, the inhibition at 10 µM in data set [3] is no less than 95%.
In turn, `COc1nc(Cl)cc(N2CCc3nc(NC(=O)Nc4cnccc4C(=O)NC(C)C)sc3C2)n1` [Compound I-91] came in with an inhibition at 10 min, 1 µM in data set [1] of 0.9%. Also, in data set [2], the inhibition at 1 µM came out at 94.7%. Also, the inhibitory constant (Ki) in data set [4] (setting [5]) is no more than 3000 nM. Moreover, the inhibition at 10 µM in data set [3] was no less than 95%.
In data set [1], `COc1cc(N2CCc3nc(NC(=O)Nc4ccccc4C(=O)NC4CCOCC4)sc3C2)nc(OC)n1` [Compound I-203] showed an inhibition at 10 min, 1 µM of 6.7%. Besides, the inhibition at 1 µM in data set [2] is no less than 95%. In data set [3], the inhibition at 10 µM turned out to be 91%.
`COc1cncc(-c2cc(NC(=O)Nc3ccccc3C(=O)NC(C)C)nn2C)c1` [Compound I-226]: the Ki in data set [4] (setting [5]) is greater than 3000 nM. Further, the inhibition at 10 µM in data set [3] stood at 93%.
Regarding `Cc1nc(NC(=O)Nc2ccccc2C(=O)NC(C)C)sc1-c1csc(S(=O)(=O)N(C)CCN(C)C)c1` [Compound I-191], in data set [2], the inhibition at 1 µM was 93%. Moreover, the inhibition at 10 µM in data set [3] came to 87%.
